Data published in article PMC10303271, “Synthesis and Receptor Binding Studies of α5 GABAAR Selective Novel Imidazodiazepines Targeted for Psychiatric and Cognitive Disorders” (Molecules, 2023).

What was measured:
H2 = target: T1, H2 (Homo sapiens, UniProt P25021); experiment: PDSP primary binding H2; conditions: primary binding, 10,000 nM; last figure of the line = mean of the 4 before it; read-out: H2, PDSP raw data, mean
T1 construct: purchased NIMH Psychoactive Drug Screening Program (PDSP)
T1 sequence (P25021 whole entry): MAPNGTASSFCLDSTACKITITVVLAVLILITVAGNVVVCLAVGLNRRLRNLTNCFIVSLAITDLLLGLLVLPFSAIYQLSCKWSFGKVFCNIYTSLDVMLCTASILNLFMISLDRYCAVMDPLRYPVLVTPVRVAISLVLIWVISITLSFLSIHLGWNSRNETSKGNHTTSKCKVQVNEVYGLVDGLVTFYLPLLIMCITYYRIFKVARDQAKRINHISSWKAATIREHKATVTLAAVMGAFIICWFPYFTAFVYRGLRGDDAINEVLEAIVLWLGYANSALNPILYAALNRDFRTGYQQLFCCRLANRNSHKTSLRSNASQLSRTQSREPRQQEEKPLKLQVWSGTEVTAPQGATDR
Description: (§1) To determine if any off-target receptor-binding effects are present, all the novel ligands were sent to the National Institute of Mental Health (NIMH), Psychoactive Drug Screening Program (PDSP). The ligands were screened over a panel of 47 receptors, ion channels, and transporters to determine any other possible interactions with […]. The hERG-binding was also determined. […] No binding of the test compounds to calcium channels was observed. […] It is necessary to screen the compounds for hERG-binding during the early process of drug discovery. The unintentional binding of many drugs to hERG can cause blockade of hERG K+ channels in the heart, which can cause many side effects including cardiac arrhythmias and sudden death. […] All of the α5 imidazodiazepines were tested for hERG-binding.
(§2) The NIMH PDSP assay protocol book [https://kidbdev.med.unc.edu/databases/PDSP%20Protocols%20II%202013-03-28.pdf accessed on 23 April 2023]. describes the protocols for primary and secondary radio-ligand binding assays. These assays were carried out in a final volume of 125 µL per well in the appropriate binding buffer.
(§3) The binding of a ligand to a receptor, ion channel, or transporter was determined in the […] of 10 µM of the appropriate reference compound. […] Plates were incubated in the dark for 90 min at rt, and the reactions were stopped by vacuum filtration onto 0.3% polyethyleneimine (PEI) soaked 96-well filter mats using a 96-well Filtermateharvester. This was followed by three washes with cold PBS buffer. Radioactivity was then counted on a Microbeta counter. Nonlinear regression was used to analyze the data with N = 6 replicates.

NET = target: T2, NET (Homo sapiens, UniProt P23975); experiment: PDSP primary binding NET; conditions: primary binding, 10,000 nM; last figure of the line = mean of the 4 before it; read-out: NET, PDSP raw data, mean
T2 construct: purchased NIMH Psychoactive Drug Screening Program (PDSP)
T2 sequence (P23975 whole entry): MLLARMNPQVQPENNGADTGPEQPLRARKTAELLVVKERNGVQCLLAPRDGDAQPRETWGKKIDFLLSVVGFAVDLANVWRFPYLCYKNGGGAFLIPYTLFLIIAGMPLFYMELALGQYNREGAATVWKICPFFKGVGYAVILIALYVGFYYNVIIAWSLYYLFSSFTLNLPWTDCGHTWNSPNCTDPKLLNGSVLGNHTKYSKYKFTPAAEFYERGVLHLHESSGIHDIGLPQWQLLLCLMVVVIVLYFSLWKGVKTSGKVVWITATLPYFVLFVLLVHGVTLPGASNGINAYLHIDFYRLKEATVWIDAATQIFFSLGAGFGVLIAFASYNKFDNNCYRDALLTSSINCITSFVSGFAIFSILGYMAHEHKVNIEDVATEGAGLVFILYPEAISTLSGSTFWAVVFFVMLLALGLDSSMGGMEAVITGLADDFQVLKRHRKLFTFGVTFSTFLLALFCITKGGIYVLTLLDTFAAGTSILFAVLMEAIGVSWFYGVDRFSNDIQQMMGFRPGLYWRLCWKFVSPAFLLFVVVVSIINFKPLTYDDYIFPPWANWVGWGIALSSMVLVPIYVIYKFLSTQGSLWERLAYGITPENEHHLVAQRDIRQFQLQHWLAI
Description: as §1, §2, §3

Ca channel human = experiment: PDSP primary binding Ca channel; conditions: primary binding, 10,000 nM; last figure of the line = mean of the 4 before it
Description: as §1, §2, §3

5-HT1D = target: T3, 5-HT1D (Homo sapiens, UniProt P28221); experiment: PDSP primary binding 5-HT1D; conditions: 1.5 h; primary binding, 10,000 nM; last figure of the line = mean of the 4 before it; read-out: 5-HT1D, PDSP raw data, mean
T3 construct: purchased NIMH Psychoactive Drug Screening Program (PDSP)
T3 sequence (P28221 whole entry): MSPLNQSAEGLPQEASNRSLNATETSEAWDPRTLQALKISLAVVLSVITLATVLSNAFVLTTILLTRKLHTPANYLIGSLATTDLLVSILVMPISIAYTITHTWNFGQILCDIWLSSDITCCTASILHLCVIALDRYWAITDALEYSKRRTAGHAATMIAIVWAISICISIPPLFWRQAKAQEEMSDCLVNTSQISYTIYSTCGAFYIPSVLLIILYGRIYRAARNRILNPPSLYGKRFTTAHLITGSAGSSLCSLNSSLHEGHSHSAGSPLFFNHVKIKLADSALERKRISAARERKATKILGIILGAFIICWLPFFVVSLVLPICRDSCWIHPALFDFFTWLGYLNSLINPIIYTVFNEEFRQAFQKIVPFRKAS
Description: as §1, §2, §3

Sigma 1 = experiment: PDSP primary binding Sigma 1; conditions: primary binding, 10,000 nM; last figure of the line = mean of the 4 before it
Description: as §1, §2, §3

H3 = target: T4, H3 (Homo sapiens, UniProt Q9Y5N1); experiment: PDSP primary binding H3; conditions: primary binding, 10,000 nM; last figure of the line = mean of the 4 before it; read-out: H3, PDSP raw data, mean
T4 construct: purchased NIMH Psychoactive Drug Screening Program (PDSP)
T4 sequence (Q9Y5N1 whole entry): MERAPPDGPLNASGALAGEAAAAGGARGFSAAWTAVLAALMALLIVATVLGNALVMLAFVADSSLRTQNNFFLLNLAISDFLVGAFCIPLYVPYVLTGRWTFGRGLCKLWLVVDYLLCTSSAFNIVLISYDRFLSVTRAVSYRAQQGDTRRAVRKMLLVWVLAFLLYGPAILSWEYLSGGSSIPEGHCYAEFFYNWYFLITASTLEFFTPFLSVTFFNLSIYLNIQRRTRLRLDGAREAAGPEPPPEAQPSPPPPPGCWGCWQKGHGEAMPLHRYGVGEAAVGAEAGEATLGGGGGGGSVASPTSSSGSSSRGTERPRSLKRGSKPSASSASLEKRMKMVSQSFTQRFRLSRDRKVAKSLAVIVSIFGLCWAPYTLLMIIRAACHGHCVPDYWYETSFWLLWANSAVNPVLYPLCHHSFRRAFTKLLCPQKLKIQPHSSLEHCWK
Description: as §1, §2, §3

BZP rat brain site = experiment: PDSP binding at BZP rat brain site; conditions: for Ki: N = 2, read-out: Binding Affinity BZR Secondary Screening Ki; for Ki / Binding Affinity BZR % Inhibition (Primary): rat brain; for Binding Affinity BZR % Inhibition (Primary): at 10,000 nM, N = 5
Description: The BZR binding affinity of the test compounds was also measured using rat brain BzR. […] The efficacy of imidazodiazepines on the benzodiazepine receptor depends on various factors, including the specific subtype of the receptor they bind to, their chemical structure, and the dose.
as §2, §3

NMDA = experiment: PDSP primary binding NMDA; conditions: primary binding, 10,000 nM; last figure of the line = mean of the 4 before it
Description: as §1, §2, §3

H4 = target: T5, H4 (Homo sapiens, UniProt Q9H3N8); experiment: PDSP primary binding H4; conditions: primary binding, 10,000 nM; last figure of the line = mean of the 4 before it; read-out: H4, PDSP raw data, mean
T5 construct: purchased NIMH Psychoactive Drug Screening Program (PDSP)
T5 sequence (Q9H3N8 whole entry): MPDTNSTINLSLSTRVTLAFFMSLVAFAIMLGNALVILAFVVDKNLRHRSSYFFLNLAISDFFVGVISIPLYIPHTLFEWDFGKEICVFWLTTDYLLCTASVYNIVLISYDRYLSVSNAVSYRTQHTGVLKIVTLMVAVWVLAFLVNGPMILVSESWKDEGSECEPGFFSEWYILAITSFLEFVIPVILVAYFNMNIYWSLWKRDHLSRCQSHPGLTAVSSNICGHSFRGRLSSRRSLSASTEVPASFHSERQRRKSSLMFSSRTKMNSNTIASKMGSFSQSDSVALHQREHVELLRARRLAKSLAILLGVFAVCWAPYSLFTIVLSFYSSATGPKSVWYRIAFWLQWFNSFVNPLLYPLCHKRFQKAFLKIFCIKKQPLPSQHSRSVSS
Description: as §1, §2, §3

Alpha1B = target: T6, Alpha1B (Homo sapiens, UniProt P35368); experiment: PDSP primary binding Alpha1B; conditions: 1.5 h; primary binding, 10,000 nM; last figure of the line = mean of the 4 before it; read-out: Alpha1B, PDSP raw data, mean
T6 construct: purchased NIMH Psychoactive Drug Screening Program (PDSP)
T6 sequence (P35368 1-520): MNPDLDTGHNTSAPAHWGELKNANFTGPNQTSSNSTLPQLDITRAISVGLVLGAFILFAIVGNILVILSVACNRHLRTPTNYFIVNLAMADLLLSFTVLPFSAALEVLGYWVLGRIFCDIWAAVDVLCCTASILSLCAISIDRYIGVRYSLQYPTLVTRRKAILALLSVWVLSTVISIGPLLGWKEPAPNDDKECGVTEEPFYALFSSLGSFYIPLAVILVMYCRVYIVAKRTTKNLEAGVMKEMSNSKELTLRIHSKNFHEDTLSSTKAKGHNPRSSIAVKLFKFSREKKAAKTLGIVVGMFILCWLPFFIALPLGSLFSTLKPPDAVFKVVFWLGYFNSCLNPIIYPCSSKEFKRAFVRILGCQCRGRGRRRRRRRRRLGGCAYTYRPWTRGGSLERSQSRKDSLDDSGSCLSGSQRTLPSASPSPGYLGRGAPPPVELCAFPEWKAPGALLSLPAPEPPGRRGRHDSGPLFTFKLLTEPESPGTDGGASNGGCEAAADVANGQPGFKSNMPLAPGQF
Description: as §1, §2, §3

Beta3 = target: T7, Beta3 (Homo sapiens, UniProt P13945); experiment: PDSP primary binding Beta3; conditions: 1.5 h; primary binding, 10,000 nM; last figure of the line = mean of the 4 before it; read-out: Beta3, PDSP raw data, mean
T7 construct: purchased NIMH Psychoactive Drug Screening Program (PDSP)
T7 sequence (P13945 whole entry): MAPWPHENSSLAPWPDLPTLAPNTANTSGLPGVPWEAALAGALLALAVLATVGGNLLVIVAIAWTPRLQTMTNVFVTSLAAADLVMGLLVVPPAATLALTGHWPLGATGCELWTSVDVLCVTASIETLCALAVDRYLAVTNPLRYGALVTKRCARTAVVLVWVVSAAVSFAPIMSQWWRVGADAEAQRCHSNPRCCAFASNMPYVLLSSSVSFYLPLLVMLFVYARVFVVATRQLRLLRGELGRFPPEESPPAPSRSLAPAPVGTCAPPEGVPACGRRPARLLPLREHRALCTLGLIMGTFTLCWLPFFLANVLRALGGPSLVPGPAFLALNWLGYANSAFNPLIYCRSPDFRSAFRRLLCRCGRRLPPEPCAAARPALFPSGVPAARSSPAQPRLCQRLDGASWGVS
Description: as §1, §2, §3

M4 D = target: T8, M4 D (Homo sapiens, UniProt P08173, A203G/Y113C); experiment: PDSP primary binding M4 D; conditions: primary binding, 10,000 nM; last figure of the line = mean of the 4 before it; read-out: M4 D, PDSP raw data, mean
T8 construct: purchased NIMH Psychoactive Drug Screening Program (PDSP)
T8 sequence (P08173 1-479 Y113C/A203G): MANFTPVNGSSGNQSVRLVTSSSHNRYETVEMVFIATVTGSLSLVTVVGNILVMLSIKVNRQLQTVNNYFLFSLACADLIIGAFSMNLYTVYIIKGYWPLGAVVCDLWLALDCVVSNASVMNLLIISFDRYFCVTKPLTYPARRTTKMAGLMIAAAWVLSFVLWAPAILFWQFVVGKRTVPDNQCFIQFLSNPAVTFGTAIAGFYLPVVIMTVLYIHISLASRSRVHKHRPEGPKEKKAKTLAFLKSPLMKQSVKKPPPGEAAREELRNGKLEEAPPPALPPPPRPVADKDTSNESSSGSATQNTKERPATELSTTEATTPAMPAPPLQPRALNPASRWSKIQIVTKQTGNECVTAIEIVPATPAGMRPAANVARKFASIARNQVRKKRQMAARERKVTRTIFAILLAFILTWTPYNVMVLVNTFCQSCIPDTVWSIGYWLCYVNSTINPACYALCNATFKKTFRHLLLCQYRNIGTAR
Description: as §1, §2, §3

Alpha4Beta2 = target: T9, Alpha4Beta2 (Rattus norvegicus, UniProt P09483+P12390); experiment: PDSP primary binding Alpha4Beta2; conditions: primary binding, 10,000 nM; last figure of the line = mean of the 4 before it; read-out: Alpha4Beta2, PDSP raw data, mean
T9 construct: purchased NIMH Psychoactive Drug Screening Program (PDSP)
T9 sequence (P09483 31-630): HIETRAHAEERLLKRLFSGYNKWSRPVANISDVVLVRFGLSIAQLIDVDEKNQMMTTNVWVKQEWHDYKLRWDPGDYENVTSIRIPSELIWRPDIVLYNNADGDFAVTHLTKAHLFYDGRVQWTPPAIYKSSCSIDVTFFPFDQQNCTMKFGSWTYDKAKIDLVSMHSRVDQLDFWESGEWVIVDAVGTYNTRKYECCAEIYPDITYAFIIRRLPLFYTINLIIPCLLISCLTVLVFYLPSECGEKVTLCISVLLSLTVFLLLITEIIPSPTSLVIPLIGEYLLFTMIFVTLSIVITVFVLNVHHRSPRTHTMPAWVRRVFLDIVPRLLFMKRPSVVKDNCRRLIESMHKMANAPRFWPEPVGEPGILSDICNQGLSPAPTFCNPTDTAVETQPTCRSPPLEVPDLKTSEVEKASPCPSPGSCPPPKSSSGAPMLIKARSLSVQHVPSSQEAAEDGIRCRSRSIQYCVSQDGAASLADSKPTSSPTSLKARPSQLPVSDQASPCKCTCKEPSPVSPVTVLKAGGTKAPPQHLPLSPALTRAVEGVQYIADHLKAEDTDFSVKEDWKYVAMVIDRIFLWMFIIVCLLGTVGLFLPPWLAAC
T9 sequence (P12390 25-500): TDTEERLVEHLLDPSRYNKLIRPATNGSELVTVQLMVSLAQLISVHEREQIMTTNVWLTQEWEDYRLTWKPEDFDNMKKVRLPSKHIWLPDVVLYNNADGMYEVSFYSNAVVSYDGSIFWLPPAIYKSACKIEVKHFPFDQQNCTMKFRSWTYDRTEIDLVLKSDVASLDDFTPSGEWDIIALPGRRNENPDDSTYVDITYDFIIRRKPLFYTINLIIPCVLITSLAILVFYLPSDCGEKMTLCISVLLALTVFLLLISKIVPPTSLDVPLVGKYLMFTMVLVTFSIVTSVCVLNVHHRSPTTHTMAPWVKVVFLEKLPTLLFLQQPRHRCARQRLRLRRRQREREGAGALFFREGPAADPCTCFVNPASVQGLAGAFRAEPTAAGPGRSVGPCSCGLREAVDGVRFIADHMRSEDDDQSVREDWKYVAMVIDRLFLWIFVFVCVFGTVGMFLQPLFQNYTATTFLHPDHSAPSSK
Description: as §1, §2, §3

Structure (SMILES) | inhibition at 10 µM (H2) [%] | inhibition at 10 µM (NET) [%] | Ca channel human, PDSP raw data, mean (Ca channel human) [%] | inhibition at 10 µM (5-HT1D) [%] | Sigma 1, PDSP raw data, mean (Sigma 1) [%] | inhibition at 10 µM (H3) [%] | Ki (BZP rat brain site) [nM] | Binding Affinity BZR % Inhibition (Primary) (BZP rat brain site) [%] | NMDA, PDSP raw data, mean (NMDA) [%] | inhibition at 10 µM (H4) [%] | inhibition at 10 µM (Alpha1B) [%] | inhibition at 10 µM (Beta3) [%] | inhibition at 10 µM (M4 D) [%] | inhibition at 10 µM (Alpha4Beta2) [%] | BZP Rat Brain Site, PDSP raw data, mean (BZP rat brain site; primary binding, 10,000 nM, last figure of the line = mean of the 4 before it) [%]
C#Cc1ccc2c(c1)C(c1ccccn1)=N[C@@H](C)c1c(C(=O)NC)ncn1-2 [Compound 23, (S)-8-Ethynyl-N,4-dimethyl-6-(pyridin-2′-yl)-4H-benzo[f]imidazo[1,5-a][1,4]diazepine-3-carboxamide] | -23.3 | 2.62 | 14.91 | -15.1 | 43.18 | -12.8 | 1300 ± 394 | 52.97 ± 6.26 | 89.17 | -16.8 | 22.2 | 0.63 | 50.5 | -4.27 | –
C#Cc1ccc2c(c1)C(c1ccccc1Cl)=N[C@H](C)c1c(C(=O)N(C)CC)ncn1-2 [Compound 29] | -0.28 | -2.63 | 22.67 | -13.1 | 35.65 | -29.5 | 394 ± 40.2 | 87.49 ± 2.75 | 98.03 | -21.5 | 19.8 | 9.72 | 46.2 | -1.16 | –
CCc1noc(-c2ncn3c2CN=C(c2ccccc2F)c2cc(C4CC4)ccc2-3)n1 [Compound 44, 5-(8-Cyclopropyl-6-(2′-fluorophenyl)-4H-benzo[f]imidazo[1,5-a][1,4]diazepin-3-yl)-3-ethyl-1,2,4-oxadiazole] | 1.55 | 4.9 | 36.68 | 67.4 | 53.37 | 7.26 | 194 ± 62.7 | 96.52 ± 2.57 | 20.03 | 20.6 | 6.87 | -4.01 | 35.9 | -1.95 | –
CCc1noc(-c2ncn3c2[C@@H](C)N=C(c2ccccc2F)c2cc(-c4ccccc4)ccc2-3)n1 [Compound 35, (R)-3-Ethyl-5-(6-(2′-fluorophenyl)-4-methyl-8-phenyl-4H-benzo[f]imidazo[1,5-a][1,4]diazepin-3-yl)-1,2,4-oxadiazole] | -10.1 | 10.2 | 61.85 | 6.66 | 45.25 | 4.89 | – | 19.91 ± 7.21 | 37.76 | 54.7 | 8.69 | 27.9 | 15.7 | 0.7 | –
C[C@H]1N=C(c2ccccc2F)c2cc(Cl)ccc2-n2cnc(-c3nc(C4CC4)no3)c21 [Compound 38, (R)-5-(8-Chloro-6-(2′-fluorophenyl)-4-methyl-4H-benzo[f]imidazo[1,5-a][1,4]diazepin-3-yl)-3-cyclopropyl-1,2,4-oxadiazole] | 6.81 | -0.22 | 30.64 | 7.31 | -1.51 | 3.21 | – | – | 65.22 | 5.24 | 10.8 | 24.2 | -18.7 | 1.67 | 88.28
